Experimental data as given in PubChem BioAssay (NCI).
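Compound exposure: 48 hours, 5 concentrations, 96-well plates. The concentration for full growth arrest is given as TGI.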

Tests used:
Assay in all cases: NCI tumour cell line growth inhibition, 48 h
[1] = test system: HCT-116 colon
[2] = test system: HT29 colon
[3] = test system: NCI-H23 lung
[4] = test system: MCF7 breast
[5] = test system: UACC-257 melanoma
[6] = test system: T-47D breast
[7] = test system: A498 renal
[8] = test system: NCI-H226 lung
[9] = test system: HCT-15 colon
[10] = test system: SK-OV-3 ovarian
[11] = test system: TK-10 renal
[12] = test system: DMS 114 small cell lung
[13] = test system: M19-MEL melanoma
[14] = test system: SNB-78 CNS
[15] = test system: DLD-1 colon

| SMILES | TGI [1] [µM] | TGI [2] [µM] | TGI [3] [µM] | TGI [4] [µM] | TGI [5] [µM] | TGI [6] [µM] | TGI [7] [µM] | TGI [8] [µM] | TGI [9] [µM] | TGI [10] [µM] | TGI [11] [µM] | TGI [12] [µM] | TGI [13] [µM] | TGI [14] [µM] | TGI [15] [µM] |
| --- | --- | --- | --- | --- | --- | --- | --- | --- | --- | --- | --- | --- | --- | --- | --- |
| O=C1C=C(O)c2c(O)ccc(O)c2C1=O | > 100 | > 100 | > 100 | > 100 | > 100 | > 100 | > 100 | > 100 | > 100 | > 100 | > 100 |  |  |  |  |
| COc1ccc(C2=C(Cl)c3cc(OC)c(OC)cc3C2)cc1OC | > 100 | > 100 | > 100 |  | > 100 |  | > 100 | > 100 | > 100 | > 100 |  | > 100 | > 100 | > 100 | > 100 |
| CCN(CC)c1ccc2cc(C(N)=O)c(=Nc3ccc(F)cc3)oc2c1 | > 100 | > 100 | > 100 | > 100 | > 100 | > 100 | > 100 | > 100 | > 100 | > 100 | 44.7 |  |  |  |  |
| O=c1c2cc(I)ccc2nc(SCc2nnco2)n1Cc1ccccc1 | > 100 | > 100 | > 100 | > 100 | > 100 | > 100 | > 100 | > 100 | > 100 | > 100 | > 100 |  |  |  |  |
| O=c1[nH]nc(Cc2ccc(Cl)cc2)n1/N=C/c1c[nH]c2ccccc12 | > 100 | > 100 | > 100 | > 100 | > 100 | > 100 | > 100 | > 100 | > 100 | > 100 | > 100 |  |  |  |  |
| CC1(C)CN=CC(C)(OCc2ccccc2)C(=O)NC(C)(C)CN=CC(C)(OCc2ccccc2)C(=O)N1 (configuration not stated) | > 10 | > 10 | > 10 | > 10 | > 10 | > 10 | > 10 | > 10 | > 10 | > 10 | > 10 |  |  |  |  |
| Cn1c(COC(=O)NC2CCCCC2)c(COC(=O)NC2CCCCC2)c2ccc3cc(C=O)ccc3c21 | > 100 | > 100 | > 100 | > 100 | > 100 | > 100 | > 100 | > 100 | > 100 | > 100 | > 100 |  |  |  |  |
| O=C1c2cccnc2-c2nccc3c2c1nc1ccc(Br)cc13 | 0.0324 | 0.723 | 0.12 | < 0.03 | 0.169 | 0.552 | 0.223 | 0.0639 | 0.116 | 0.389 | 0.749 |  |  |  |  |
| CC(=O)c1ccc2c3c1O[C@H]1c4[nH]c5ccccc5c4C[C@@]4(O)[C@@H](C2)N(CC2CC2)CC[C@]314 | 28.9 | 20 | 48.1 | 30.4 | 30.7 | 44 | 16.1 | 42.5 | 25.3 | 35.9 | 32.4 |  |  |  |  |
| O=C(NN1C(=O)C(Cl)C1c1ccccc1Cl)c1ccccc1O (configuration not stated) | > 100 | > 100 |  |  | > 100 |  |  | > 100 | > 100 | > 100 | > 100 | > 100 | > 100 | > 100 | > 100 |
| Cc1ccc2c(=O)cc(Cc3csc4ccccc34)[nH]c2n1 | > 100 | > 100 | 53.4 | > 100 | > 100 | 73.2 | > 100 | 85.8 | 55.8 | > 100 | > 100 |  |  |  |  |
| Nc1ccccc1OCCCOc1ccccc1N | > 100 | > 100 | > 100 | > 100 | > 100 | > 100 | > 100 | > 100 | > 100 | > 100 | > 100 |  |  |  |  |
| O=C(NNS(=O)(=O)c1ccccc1)c1csc(NC(=S)NC2CCCCC2)n1 | 36 | > 100 | > 100 | > 100 | 53.8 | 52.9 | > 100 | > 100 | > 100 | > 100 | > 100 |  |  |  |  |
| COc1ccc(N2C(=O)C3c4[nH]c5ccccc5c4C4c5ccccc5CC4C3C2=O)cc1 (configuration not stated) | > 100 | > 100 | > 100 | > 100 | > 100 | > 100 | > 100 | > 100 | > 100 | > 100 | > 100 |  |  |  |  |
| CC1=NN(C(=O)Cc2ccccc2)C(=O)/C1=C\c1ccccc1O | > 100 | > 100 | > 100 |  | > 100 |  | > 100 | > 100 | > 100 | > 100 | > 100 | > 100 | > 100 | > 100 | > 100 |
| CN(/N=C/c1ccc(Cl)cc1)C1=NCCCCN1 | > 100 | > 100 | > 100 | > 100 | > 100 | > 100 | > 100 | > 100 | > 100 | > 100 | > 100 |  |  |  |  |
| O=C(N[C@H]1CCC[C@H]1C(=O)Nc1ccc(C(F)(F)F)cc1)OCc1ccccc1 | > 100 | > 100 | > 100 | > 100 | > 100 | > 100 | > 100 | > 100 | > 100 | > 100 | > 100 |  |  |  |  |
| O=C(CSCC(=O)N/N=C\c1ccccc1F)N/N=C\c1ccccc1F | > 100 | > 100 | > 100 | > 100 | > 100 | > 100 | > 100 | > 100 | > 100 | > 100 | > 100 |  |  |  |  |
| CS(=O)(=O)OCC1CCCCCCCCCCC12SCCCS2 (configuration not stated) | > 100 | > 100 | > 100 | > 100 | > 100 | > 100 | > 100 | > 100 | > 100 | > 100 | > 100 |  |  |  |  |
